From ChEMBL document CHEMBL1156401, “A neutrophil multitarget functional bioassay to detect anti-inflammatory natural products” (J Nat Prod, 2002)
Converted amounts (≈) assume the structure as drawn.

Columns and labels:
Homo sapiens = species: Homo sapiens; assay: Induction of elastase release in human PMNC assessed as increase in p-nitroanilide formation; type: functional
[1] = Antiinflammatory activity against cytochalasin-activated human PMNC assessed as inhibition of platelet activating factor-induced elastase release by p-nitroanilide formation assay; type: functional

In the case of `C[C@H]1O[C@@H](O[C@H]2[C@@H](O)C[C@H](O[C@H]3[C@@H](O)C[C@H](O[C@H]4CC[C@@]5(C)[C@H](CC[C@@H]6[C@@H]5CC[C@]5(C)[C@@H](C7=CC(=O)OC7)CC[C@]65O)C4)O[C@@H]3C)O[C@@H]2C)C[C@H](O)[C@@H]1O`, the Activity (Homo sapiens) is reported as “Dose-dependent effect”.
Work on `C[C@@H]1C(=O)O[C@H]2[C@H](O)[C@@]34[C@H]5C[C@@H](C(C)(C)C)[C@]36[C@@H](OC(=O)[C@@H]6O)O[C@@]4(C(=O)O5)[C@@]12O` [GINKOLIDE B] yielded an IC50 [1] of 72 µg/mL (≈ 170 µM).
